Here are results for six compounds from patent publication US20050197634A1, “Methods for coating and impregnating medical devices with antiseptic compositions” (Board of Regents, The University of Texas System, priority 2004, published 2005).

The structures appear in SMILES notation.

In assay [1] the test system is various nosocomial pathogens. In words: In vitro zones of inhibition of coated or impregnated catheter devices and sutures. The assay is classed as cell-based. Conditions: coating or impregnating catheter devices and sutures. The method, then: (§1) In Vitro antimicrobial activity. The antimicrobial activity of impregnated catheters was evaluated in duplicate by a modified Kirby-Bauer technique. BBL Mueller Hinton II agar plates (obtained from Fisher Scientific) were inoculated with 0.5 McFarland of the appropriate microorganism (hospital isolates from the MD Anderson Cancer Center). Then 10 mm segments of impregnated devices were embedded in the inoculated plates and placed in an incubator at about 37° C. for at least 18 hours. Zones of inhibition were measured perpendicular to the long axis of the device.

Assay [2] deals with Pseudomonas aeruginosa. The assay can be described thus: Zones of inhibition of impregnated device segments, modified Kirby-Bauer technique. Type of assay: cell-based. Conditions: gentian violet after impregnating surfaces of various polymers incl. polyvinylchloride. The method, then:
as §1
(§2) Anti-microbial activity of GND-ETT and GND-UC segments was assessed by modified Kirby-Bauer method. Segments were embedded in Mueller Hinton agar plates inoculated with one of the following organisms: Candida albicans (CA), vancomycin resistant enterococci (VRE), E. coli (EC), Candida parapsilosis(CP), methicillin resistant S. aureus (MRSA) or Pseudomonas aeruginosa (PS). Plates were incubated at 37° C. Zones of inhibition (ZOI) created by impregnated segments were measured in mm.
(§3) GND-ETT and GND-UC were immersed in sterile pooled bronchoalveolar lavage (BAL) or urine, respectively, and incubated at 37° C. BAL and urine were changed weekly and ZOI were determined in duplicate at weekly intervals.

Assay [3] deals with S. epidermis. Particulars: in vitro study, gentian violet alone; cited from earlier work.
In assay [4] the test system is Methicillin resistant Staph. aureus (MRSA2066). The assay can be described thus: Zones of inhibition of impregnated device segments, modified Kirby-Bauer technique. Particulars: in words. Type of assay: cell-based. The method, then:
as §1, §2, §3

For assay [5], the system named is Candida parapsilosis (C. Parap.1-100-0022). The description is as above. The assay is classed as cell-based. Conditions: in words. As for the experimental part:
as §1, §2, §3

In assay [6] the test system is Alcaligenes faecalis. In words: Zones of inhibition of impregnated PVC tubes. Type of assay: cell-based. Particulars: in words. As for the experimental part: as §1
Where [7] appears, read: sutures, compared with Genlenol.

For the compound `Cc1cc(O)cc(C)c1Cl` [PCMX, p-chloro-m-xylenol; 4-chloro-3,5-dimethylxylenol, reference compound], the “in vitro zones of inhibition against various nosocomial pathogens” value (“in vitro zones of inhibition” below) in assay [1] was “Neither the neutral form of PCMX nor its sodium salt could produce in vitro zones of inhibition”.

Consider `[H]/N=C(\N/C(=N/[H])NCCCCCCNC(=N)NC(=N)Nc1ccc(Cl)cc1)Nc1ccc(Cl)cc1` [chlorhexidine], for which the “activity against Pseudomonas aeruginosa, agent on its own” value in assay [2] was “not highly active”.

As to `CN(C)c1ccc(C(=C2C=CC(=[N+](C)C)C=C2)c2ccc(N(C)C)cc2)cc1` [GV, Gentian violet], the “activity against Pseudomonas aeruginosa, agent on its own” value in assay [2] is “no activity”. Moreover, in assay [3], the “colonization of S. epidermis on impregnated CSF silicone shunt surfaces” value is listed as “prevent the colonization”.

As for `CC(C)(C)CC(C)(C)c1ccc([O-])c(Cc2ccc(Cl)cc2Cl)c1.CN(C)c1ccc(C(=C2C=CC(=[N+](C)C)C=C2)c2ccc(N(C)C)cc2)cc1` [Genfoctol], in assay [1], the “in vitro zones of inhibition” value is listed as “large in vitro zones of inhibition”. For the same compound, the “zones against MRSA” value in assay [4] (setting [7]) is listed as “much larger zones”. Also, the “zones against C. parapsilosis” value in assay [5] (setting [7]) is listed as “much larger zones”.

Regarding `CN(C)c1ccc(C(=C2C=CC(=[N+](C)C)C=C2)c2ccc(N(C)C)cc2)cc1.[O-]c1cc(Cl)ccc1Oc1ccc(Cl)cc1Cl` [Genlosan], the “in vitro zones of inhibition” value in assay [1] was “large in vitro zones of inhibition”.

For `CN(C)c1ccc(C(=C2C=CC(=[N+](C)C)C=C2)c2ccc(N(C)C)cc2)cc1.Cc1cc([O-])cc(C)c1Cl` [Genlenol], the “zones of inhibition against Alcaligenes faecalis” value in assay [6] is reported as “to a large extent”. Moreover, the “in vitro zones of inhibition” value in assay [1] was “large in vitro zones of inhibition”. The “zone against MRSA” value in assay [4] (silicone catheter) is “increased the zone against MRSA considerably”. In assay [5] (PVC tubes and PVC catheters), the “zones of inhibition against C. parapsilosis” value is on record as “Improvements”. Also, the “zone against C. parapsilosis” value in assay [5] (silicone catheter) is recorded as “large zone”.
